Data on 30 molecules can be found in patent US20080021026A1, “BENZOTHIOPHENE INHIBITORS OF RHO KINASE” (priority 2006, published 2008).

Read-outs that look alike come from different tables or passages of the source.

The term IC50 denotes the midpoint of a concentration-inhibition curve.

The test concerns the target T1, recombinant N-terminal GST-tagged human Rho kinase 2 (ROCK2, amino acids 1-552) (Homo sapiens, UniProt O75116).
T1 construct: ROCK2, amino acids 1-552; purchased Invitrogen Inc. PV3759
The experiment in a line: In vitro Rho kinase assay (luciferase-based ATP consumption), ROCK2. The format is biochemical. A digest of the protocol:
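Luciferase-based luminescence of leftover ATP after 2 h at 30 °C, where inhibition raises signal, reports activity of GST-tagged ROCK2 (aa 1-552) at 0.82 μg/ml. Conditions: S6 peptide 100 μg/ml, […], pH 7.5 Tris buffer. Results given as percent of H-1152P control activity.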

Setting [1] is: recombinant GST-tagged human ROCK2, luciferase-based ATP consumption, read-out: ROCK2 IC50.

T1 sequence (O75116 1-552): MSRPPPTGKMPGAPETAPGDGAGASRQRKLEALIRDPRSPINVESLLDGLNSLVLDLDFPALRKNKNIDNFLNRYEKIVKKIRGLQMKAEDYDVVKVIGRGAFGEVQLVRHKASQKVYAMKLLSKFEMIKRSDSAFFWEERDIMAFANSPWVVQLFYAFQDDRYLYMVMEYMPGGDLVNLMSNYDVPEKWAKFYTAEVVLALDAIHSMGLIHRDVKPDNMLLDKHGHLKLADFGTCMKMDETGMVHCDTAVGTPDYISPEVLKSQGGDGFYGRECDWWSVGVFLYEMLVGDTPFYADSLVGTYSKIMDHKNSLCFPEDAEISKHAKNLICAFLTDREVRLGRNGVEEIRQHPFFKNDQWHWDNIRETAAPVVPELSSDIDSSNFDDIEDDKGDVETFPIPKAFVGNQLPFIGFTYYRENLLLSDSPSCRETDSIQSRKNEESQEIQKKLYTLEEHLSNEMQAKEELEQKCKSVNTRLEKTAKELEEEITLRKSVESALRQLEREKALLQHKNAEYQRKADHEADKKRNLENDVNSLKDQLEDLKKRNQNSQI

For the molecule `Cc1c(-c2ccnc(N)n2)sc2ccc(C(=O)NCCc3cccc(Cl)c3)cc12` [Example 429, Cc1c(sc2ccc(cc12)C(═O)NCCc3cccc(Cl)c3)-c4ccnc(N)n4], the half-maximal inhibitory concentration (IC50) under setting [1] was less than 5 µM.

As for `Cc1c(-c2ccnc(N)n2)sc2ccc(C(=O)N3CCN(c4ccccc4Cl)CC3)cc12` [Example 569, Cc1c(sc2ccc(cc12)C(═O)N3CCN(CC3)c4ccccc4Cl)-c5ccnc(N)n5], under setting [1], the 50% inhibitory concentration (IC50) is more than 5 µM.

For `Cc1c(-c2ccnc(N)n2)sc2ccc(C(=O)NCc3ccncc3)cc12` [Example 366, Cc1c(sc2ccc(cc12)C(═O)NCc3ccncc3)-c4ccnc(N)n4], the IC50 under setting [1] is less than 5 µM.

Consider `Cc1c(-c2ccnc(N)n2)sc2ccc(C(=O)N3CCN(c4ccc([N+](=O)[O-])cc4)CC3)cc12` [Example 552, Cc1c(sc2ccc(cc12)C(═O)N3CCN(CC3)c4ccc(cc4)[N+]([O−])═O)-c5ccnc(N)n5], for which the 50% inhibitory concentration (IC50) under setting [1] was less than 5 µM.

As to `Cc1c(-c2ccnc(N)n2)sc2ccc(C(=O)N(Cc3ccccc3)C(C)C)cc12` [Example 505, CC(C)N(Cc1ccccc1)C(═O)c2ccc3sc(c(C)c3c2)-c4ccnc(N)n4], the 50% inhibitory concentration (IC50) under setting [1] was less than 5 µM.

Regarding `Cc1c(-c2ccnc(N)n2)sc2ccc(C(=O)N(C)CC(O)c3ccc(O)cc3)cc12` (stereo not drawn) [Example 518, CN(CC(O)c1ccc(O)cc1)C(═O)c2ccc3sc(c(C)c3c2)-c4ccnc(N)n4], the IC50 under setting [1] is less than 5 µM.

For the molecule `COc1ccc(C(=O)CNC(=O)c2ccc3sc(-c4ccnc(N)n4)c(C)c3c2)cc1` [Example 455, COc1ccc(cc1)C(═O)CNC(═O)c2ccc3sc(c(C)c3c2)-c4ccnc(N)n4], the half-maximal inhibitory concentration (IC50) under setting [1] is less than 5 µM.

With `Cc1c(-c2ccnc(N)n2)sc2ccc(C(=O)NCCc3cccc(F)c3)cc12` [Example 407, Cc1c(sc2ccc(cc12)C(═O)NCCc3cccc(F)c3)-c4ccnc(N)n4], the half-maximal inhibitory concentration (IC50) under setting [1] was less than 5 µM.

Consider `Cc1c(-c2ccnc(N)n2)sc2ccc(C(=O)N3C(C)CCCC3C)cc12` (stereo not drawn) [Example 483, CC1CCCC(C)N1C(═O)c2ccc3sc(c(C)c3c2)-c4ccnc(N)n4], for which, under setting [1], the IC50 was more than 5 µM.

With `Cc1c(-c2ccnc(N)n2)sc2ccc(C(=O)NCc3ccc(C(C)(C)C)cc3)cc12` [Example 436, Cc1c(sc2ccc(cc12)C(═O)NCc3ccc(cc3)C(C)(C)C)-c4ccnc(N)n4], under setting [1], the IC50 was more than 5 µM.

As to `Cc1c(-c2ccnc(N)n2)sc2ccc(C(=O)N3C[C@@H](C)N[C@@H](C)C3)cc12` [Example 485, C[C@@H]1CN(C[C@H](C)N1)C(═O)c2ccc3sc(c(C)c3c2)-c4ccnc(N)n4], under setting [1], the half-inhibitory concentration (IC50) was less than 5 µM.

On to `Cc1c(-c2ccnc(N)n2)sc2ccc(C(=O)NC(CO)C(C)C)cc12` (stereo not drawn) [Example 362, CC(C)C(CO)NC(═O)c1ccc2sc(c(C)c2c1)-c3ccnc(N)n3], for which, under setting [1], the IC50 was less than 5 µM.

On to `Cc1c(-c2ccnc(N)n2)sc2ccc(C(=O)N3Cc4ccccc4C3)cc12` [Example 491, Cc1c(sc2ccc(cc12)C(═O)N3Cc4ccccc4C3)-c5ccnc(N)n5], for which, under setting [1], the 50% inhibitory concentration (IC50) is less than 5 µM.

Turning to `Cc1c(-c2ccnc(N)n2)sc2ccc(C(=O)N3CCN(c4ccccc4C#N)CC3)cc12` [Example 532, Cc1c(sc2ccc(cc12)C(═O)N3CCN(CC3)c4ccccc4C#N)-c5ccnc(N)n5], the IC50 under setting [1] was more than 5 µM.

Regarding `Cc1c(-c2ccnc(N)n2)sc2ccc(C(=O)NC3CCCCC3)cc12` [Example 356, Cc1c(sc2ccc(cc12)C(═O)NC3CCCCC3)-c4ccnc(N)n4], the IC50 under setting [1] is more than 5 µM.

For the molecule `Cc1c(-c2ccnc(N)n2)sc2ccc(C(=O)NCCNC(=O)OC(C)(C)C)cc12` [Example 434, Cc1c(sc2ccc(cc12)C(═O)NCCNC(═O)OC(C)(C)C)-c3ccnc(N)n3], the IC50 under setting [1] is less than 5 µM.

Turning to `Cc1cnc(CNC(=O)c2ccc3sc(-c4ccnc(N)n4)c(C)c3c2)cn1` [Example 381, Cc1cnc(CNC(═O)c2ccc3sc(c(C)c3c2)-c4ccnc(N)n4)cn1], the IC50 under setting [1] was less than 5 µM.

As for `Cc1c(-c2ccnc(N)n2)sc2ccc(C(=O)N(C)C[C@H](O)c3ccc(O)c(O)c3)cc12` [Example 528, CN(C[C@H](O)c1ccc(O)c(O)c1)C(═O)c2ccc3sc(c(C)c3c2)-c4ccnc(N)n4], under setting [1], the 50% inhibitory concentration (IC50) was less than 5 µM.

For the molecule `Cc1c(-c2ccnc(N)n2)sc2ccc(C(=O)NCc3ccccn3)cc12` [Example 365, Cc1c(sc2ccc(cc12)C(═O)NCc3ccccn3)-c4ccnc(N)n4], the IC50 under setting [1] was less than 5 µM.

In the case of `Cc1c(-c2ccnc(N)n2)sc2ccc(C(=O)NCc3ccco3)cc12` [Example 355, Cc1c(sc2ccc(cc12)C(═O)NCc3ccco3)-c4ccnc(N)n4], the concentration for half-maximal inhibition (IC50) under setting [1] is less than 5 µM.

Take `Cc1c(-c2ccnc(N)n2)sc2ccc(C(=O)NCc3ccccc3Cl)cc12` [Example 409, Cc1c(sc2ccc(cc12)C(═O)NCc3ccccc3Cl)-c4ccnc(N)n4]: the half-inhibitory concentration (IC50) (ROCK2 IC50, recombinant GST-tagged human ROCK2, luciferase-based ATP consumption) is less than 5 µM.

On to `COCC(C)NC(=O)c1ccc2sc(-c3ccnc(N)n3)c(C)c2c1` (stereo not drawn) [Example 352, COCC(C)NC(═O)c1ccc2sc(c(C)c2c1)-c3ccnc(N)n3], for which the concentration for half-maximal inhibition (IC50) under setting [1] was more than 5 µM.

Take `Cc1c(-c2ccnc(N)n2)sc2ccc(C(=O)NCCc3ccc(O)cc3)cc12` [Example 400, Cc1c(sc2ccc(cc12)C(═O)NCCc3ccc(O)cc3)-c4ccnc(N)n4]: the IC50 under setting [1] is less than 5 µM.

In the case of `COc1cc(CNC(=O)c2ccc3sc(-c4ccnc(N)n4)c(C)c3c2)cc(OC)c1` [Example 439, COc1cc(CNC(═O)c2ccc3sc(c(C)c3c2)-c4ccnc(N)n4)cc(OC)c1], the IC50 under setting [1] is less than 5 µM.

As for `Cc1c(-c2ccnc(N)n2)sc2ccc(C(=O)NCCC(c3ccccc3)c3ccccc3)cc12` [Example 457, Cc1c(sc2ccc(cc12)C(═O)NCCC(c3ccccc3)c4ccccc4)-c5ccnc(N)n5], the IC50 under setting [1] is more than 5 µM.

On to `Cc1c(-c2ccnc(N)n2)sc2ccc(C(=O)NC3CCCCCC3)cc12` [Example 370, Cc1c(sc2ccc(cc12)C(═O)NC3CCCCCC3)-c4ccnc(N)n4], for which the IC50 under setting [1] is more than 5 µM.

With `Cc1c(-c2ccnc(N)n2)sc2ccc(C(=O)N3CCCC(c4ccc(C(F)(F)F)cc4)C3)cc12` (stereo not drawn) [Example 571, Cc1c(sc2ccc(cc12)C(═O)N3CCCC(C3)c4ccc(cc4)C(F)(F)F)-c5ccnc(N)n5], under setting [1], the concentration for half-maximal inhibition (IC50) was more than 5 µM.

Regarding `CCOC(=O)CC1C(=O)NCCN1C(=O)c1ccc2sc(-c3ccnc(N)n3)c(C)c2c1` (stereo not drawn) [Example 529, CCOC(═O)CC1N(CCNC1═O)C(═O)c2ccc3sc(c(C)c3c2)-c4ccnc(N)n4], the IC50 under setting [1] is less than 5 µM.

Turning to `COCCNC(=O)c1ccc2sc(-c3ccnc(N)n3)c(C)c2c1` [Example 345, COCCNC(═O)c1ccc2sc(c(C)c2c1)-c3ccnc(N)n3], under setting [1], the concentration for half-maximal inhibition (IC50) was less than 5 µM.

On to `CCOC(=O)C1CCCN(C(=O)c2ccc3sc(-c4ccnc(N)n4)c(C)c3c2)C1` (stereo not drawn) [Example 510, CCOC(═O)C1CCCN(C1)C(═O)c2ccc3sc(c(C)c3c2)-c4ccnc(N)n4], for which the half-maximal inhibitory concentration (IC50) under setting [1] was less than 5 µM.
